Test results as given in paper PMC9736855, “Discovery of 3-Amino-1H-pyrazole-Based Kinase Inhibitors to Illuminate the Understudied PCTAIRE Family” (International Journal of Molecular Sciences, 2022).

Assays:
Experiment in all cases: DSF
Type in all cases: binding
NEK1 = biological target: T1, NEK1 (Homo sapiens, UniProt Q96PY6)
T1 construct: purchased in-house DSF panel (SGC Frankfurt)
T1 sequence (Q96PY6 1-328): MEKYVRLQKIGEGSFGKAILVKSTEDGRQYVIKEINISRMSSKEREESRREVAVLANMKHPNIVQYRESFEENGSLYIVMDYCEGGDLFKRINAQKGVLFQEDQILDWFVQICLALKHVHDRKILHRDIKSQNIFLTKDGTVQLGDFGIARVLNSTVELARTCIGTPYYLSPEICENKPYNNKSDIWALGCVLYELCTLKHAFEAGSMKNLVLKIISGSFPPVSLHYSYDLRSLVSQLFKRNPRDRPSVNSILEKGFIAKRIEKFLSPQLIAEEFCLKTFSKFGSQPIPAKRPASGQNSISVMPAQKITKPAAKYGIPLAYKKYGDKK
Description: (§2) Recombinant protein kinase domains with a concentration of 2 μM were mixed with a 10 μM compound solution in DMSO, 20 mM HEPES, pH 7.5, and 500 mM NaCl. SYPRO Orange (5000×, Invitrogen) was added as a fluorescence probe (1 µl per mL). Subsequently, temperature-dependent protein unfolding profiles were measured, using the QuantStudio™ 5 realtime PCR machine (Thermo Fisher, Waltham, MA, USA). […] The temperature was raised with a step rate of 3 °C per minute. Data points were analyzed with the internal software (Thermal Shift SoftwareTM Version 1.4, Thermo Fisher) using the Boltzmann equation to determine the inflection point of the transition curve [56]. Differences in melting temperature are given as ΔTm values in °C. Measurements were performed in duplicates.

CLK3 = biological target: T2, CLK3 (Homo sapiens, UniProt P49761)
T2 construct: purchased in-house DSF panel (SGC Frankfurt)
T2 sequence (P49761 127-484): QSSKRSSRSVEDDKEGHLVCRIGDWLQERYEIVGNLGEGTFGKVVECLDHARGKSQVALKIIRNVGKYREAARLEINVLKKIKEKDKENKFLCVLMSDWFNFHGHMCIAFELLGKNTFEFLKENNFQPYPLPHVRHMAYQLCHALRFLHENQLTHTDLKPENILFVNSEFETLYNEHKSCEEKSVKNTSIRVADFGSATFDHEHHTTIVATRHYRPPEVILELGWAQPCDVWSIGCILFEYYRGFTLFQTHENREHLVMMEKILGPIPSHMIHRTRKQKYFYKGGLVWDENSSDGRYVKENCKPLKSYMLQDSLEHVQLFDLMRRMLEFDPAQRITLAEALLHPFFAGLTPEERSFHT
Description: as §2

STK38L = biological target: T3, STK38L (Homo sapiens, UniProt Q9Y2H1)
T3 construct: purchased in-house DSF panel (SGC Frankfurt)
T3 sequence (Q9Y2H1 90-453): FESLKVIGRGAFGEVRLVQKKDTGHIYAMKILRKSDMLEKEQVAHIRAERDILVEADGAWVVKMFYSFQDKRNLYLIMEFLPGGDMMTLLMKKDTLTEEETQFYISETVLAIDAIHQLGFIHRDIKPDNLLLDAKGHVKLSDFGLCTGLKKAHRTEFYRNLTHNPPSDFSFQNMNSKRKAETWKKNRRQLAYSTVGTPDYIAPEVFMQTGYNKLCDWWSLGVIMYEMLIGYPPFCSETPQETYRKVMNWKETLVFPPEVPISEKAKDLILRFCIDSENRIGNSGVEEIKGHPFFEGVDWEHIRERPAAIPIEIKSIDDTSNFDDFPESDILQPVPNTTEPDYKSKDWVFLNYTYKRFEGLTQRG
Description: as §2

FES = biological target: T4, FES (Homo sapiens, UniProt P07332)
T4 construct: purchased in-house DSF panel (SGC Frankfurt)
T4 sequence (P07332 whole entry): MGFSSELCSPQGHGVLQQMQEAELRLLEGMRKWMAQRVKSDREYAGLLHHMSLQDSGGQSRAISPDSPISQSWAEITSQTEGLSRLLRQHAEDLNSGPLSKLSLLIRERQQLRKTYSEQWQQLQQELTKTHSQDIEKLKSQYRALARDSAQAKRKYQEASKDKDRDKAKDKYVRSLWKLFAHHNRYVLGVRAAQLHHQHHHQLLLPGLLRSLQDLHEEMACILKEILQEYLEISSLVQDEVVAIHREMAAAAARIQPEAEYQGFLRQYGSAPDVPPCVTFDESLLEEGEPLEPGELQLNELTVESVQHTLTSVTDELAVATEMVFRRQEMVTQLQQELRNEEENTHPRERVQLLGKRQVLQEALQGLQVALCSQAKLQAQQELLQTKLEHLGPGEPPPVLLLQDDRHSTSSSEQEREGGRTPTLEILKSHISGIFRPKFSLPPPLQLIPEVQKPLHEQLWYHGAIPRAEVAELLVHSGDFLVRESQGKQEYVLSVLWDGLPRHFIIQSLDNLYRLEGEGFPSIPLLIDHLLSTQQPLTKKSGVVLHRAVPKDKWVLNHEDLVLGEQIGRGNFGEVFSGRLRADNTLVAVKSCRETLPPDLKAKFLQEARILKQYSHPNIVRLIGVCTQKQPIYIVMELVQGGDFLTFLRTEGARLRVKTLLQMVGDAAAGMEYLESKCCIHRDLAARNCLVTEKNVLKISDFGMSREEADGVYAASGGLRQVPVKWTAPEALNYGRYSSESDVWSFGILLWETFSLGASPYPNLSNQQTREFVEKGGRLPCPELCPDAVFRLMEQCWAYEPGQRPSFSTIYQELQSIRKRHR
Description: (§1) Recombinant protein kinase domains with a concentration of 2 μM were mixed with a 10 μM compound solution in DMSO, 20 mM HEPES, pH 7.5, and 500 mM NaCl. SYPRO Orange (5000×, Invitrogen) was added as a fluorescence probe (1 µl per mL). Subsequently, temperature-dependent protein unfolding profiles were measured, using the QuantStudio™ 5 realtime PCR machine (Thermo Fisher, Waltham, MA, USA). […] The temperature was raised with a step rate of 3 °C per minute. Data points were analyzed with the internal software (Thermal Shift SoftwareTM Version 1.4, Thermo Fisher) using the Boltzmann equation to determine the inflection point of the transition curve. Differences in melting temperature are given as ΔTm values in °C. Measurements were performed in duplicates.

MAPK1 = biological target: T5, MAPK1 (Homo sapiens, UniProt P28482)
T5 construct: purchased in-house DSF panel (SGC Frankfurt)
T5 sequence (P28482 whole entry): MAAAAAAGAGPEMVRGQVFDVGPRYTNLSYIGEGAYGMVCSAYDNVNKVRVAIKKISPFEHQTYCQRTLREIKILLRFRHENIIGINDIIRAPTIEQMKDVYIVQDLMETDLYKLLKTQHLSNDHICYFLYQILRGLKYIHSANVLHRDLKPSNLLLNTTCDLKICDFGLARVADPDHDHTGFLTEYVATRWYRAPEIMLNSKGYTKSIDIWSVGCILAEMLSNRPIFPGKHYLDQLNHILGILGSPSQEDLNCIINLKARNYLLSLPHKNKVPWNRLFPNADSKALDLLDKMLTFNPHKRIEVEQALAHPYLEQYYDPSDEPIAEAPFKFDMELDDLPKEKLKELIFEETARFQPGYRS
Description: as §1

PAK4 = biological target: T6, PAK4 (Homo sapiens, UniProt O96013)
T6 construct: purchased in-house DSF panel (SGC Frankfurt)
T6 sequence (O96013 291-591): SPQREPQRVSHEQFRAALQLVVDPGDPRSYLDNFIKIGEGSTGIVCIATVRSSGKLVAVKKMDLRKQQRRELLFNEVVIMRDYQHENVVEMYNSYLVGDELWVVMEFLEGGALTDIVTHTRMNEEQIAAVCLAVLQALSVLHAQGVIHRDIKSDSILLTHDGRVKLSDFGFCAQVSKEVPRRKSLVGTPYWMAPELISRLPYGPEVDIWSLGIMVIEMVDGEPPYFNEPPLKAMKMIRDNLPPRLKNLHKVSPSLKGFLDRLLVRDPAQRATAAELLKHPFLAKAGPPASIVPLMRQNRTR
Description: as §1

CASK = biological target: T7, CASK (Homo sapiens, UniProt O14936)
T7 construct: purchased in-house DSF panel (SGC Frankfurt)
T7 sequence (O14936 1-337): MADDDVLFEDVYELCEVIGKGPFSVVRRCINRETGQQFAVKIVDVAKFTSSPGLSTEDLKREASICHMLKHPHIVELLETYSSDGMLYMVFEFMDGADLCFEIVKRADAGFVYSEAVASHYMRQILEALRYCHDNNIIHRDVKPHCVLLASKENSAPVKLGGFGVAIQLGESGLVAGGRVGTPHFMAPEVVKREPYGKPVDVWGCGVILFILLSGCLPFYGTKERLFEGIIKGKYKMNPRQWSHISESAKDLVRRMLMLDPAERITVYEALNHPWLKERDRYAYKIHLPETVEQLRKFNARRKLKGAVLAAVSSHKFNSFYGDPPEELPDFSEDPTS
Description: as §1

CAMK1G = biological target: T8, CAMK1G (Homo sapiens, UniProt Q96NX5)
T8 construct: purchased in-house DSF panel (SGC Frankfurt)
T8 sequence (Q96NX5 whole entry): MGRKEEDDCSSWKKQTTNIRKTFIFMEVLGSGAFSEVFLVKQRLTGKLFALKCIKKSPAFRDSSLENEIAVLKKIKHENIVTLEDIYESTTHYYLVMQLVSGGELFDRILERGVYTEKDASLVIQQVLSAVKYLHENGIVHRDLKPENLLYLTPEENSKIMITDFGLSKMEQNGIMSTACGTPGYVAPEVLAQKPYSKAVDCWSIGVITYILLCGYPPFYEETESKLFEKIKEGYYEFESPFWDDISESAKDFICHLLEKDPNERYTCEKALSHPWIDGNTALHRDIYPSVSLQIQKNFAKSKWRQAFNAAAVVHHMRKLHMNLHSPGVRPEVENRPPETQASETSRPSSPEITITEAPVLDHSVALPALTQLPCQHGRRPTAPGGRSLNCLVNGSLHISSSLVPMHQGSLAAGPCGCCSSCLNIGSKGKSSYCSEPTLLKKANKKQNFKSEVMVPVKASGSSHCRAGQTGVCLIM
Description: as §1

PHKG2 = biological target: T9, PHKG2 (Homo sapiens, UniProt P15735)
T9 construct: purchased in-house DSF panel (SGC Frankfurt)
T9 sequence (P15735 6-293): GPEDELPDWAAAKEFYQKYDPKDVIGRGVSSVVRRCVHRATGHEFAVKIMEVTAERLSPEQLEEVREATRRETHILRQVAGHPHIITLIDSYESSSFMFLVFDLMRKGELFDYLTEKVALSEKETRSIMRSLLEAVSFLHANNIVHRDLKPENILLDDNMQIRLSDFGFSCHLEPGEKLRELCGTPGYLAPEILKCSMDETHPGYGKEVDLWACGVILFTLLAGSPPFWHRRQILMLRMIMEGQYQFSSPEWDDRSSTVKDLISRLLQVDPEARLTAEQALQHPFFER
Description: as §1

FGFR1 = biological target: T10, FGFR1 (Homo sapiens, UniProt P11362)
T10 construct: purchased in-house DSF panel (SGC Frankfurt)
T10 sequence (P11362 456-765): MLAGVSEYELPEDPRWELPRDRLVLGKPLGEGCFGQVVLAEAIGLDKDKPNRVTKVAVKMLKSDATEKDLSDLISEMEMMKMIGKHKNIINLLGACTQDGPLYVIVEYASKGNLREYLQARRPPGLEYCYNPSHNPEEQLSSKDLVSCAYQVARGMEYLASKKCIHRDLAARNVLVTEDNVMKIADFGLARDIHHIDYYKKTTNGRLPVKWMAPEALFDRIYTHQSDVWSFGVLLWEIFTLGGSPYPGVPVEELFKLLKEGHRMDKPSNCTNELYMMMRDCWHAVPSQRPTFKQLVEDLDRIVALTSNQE
Description: as §1

CAMK1D = biological target: T11, CAMK1D (Homo sapiens, UniProt Q8IU85)
T11 construct: purchased in-house DSF panel (SGC Frankfurt)
T11 sequence (Q8IU85 23-279): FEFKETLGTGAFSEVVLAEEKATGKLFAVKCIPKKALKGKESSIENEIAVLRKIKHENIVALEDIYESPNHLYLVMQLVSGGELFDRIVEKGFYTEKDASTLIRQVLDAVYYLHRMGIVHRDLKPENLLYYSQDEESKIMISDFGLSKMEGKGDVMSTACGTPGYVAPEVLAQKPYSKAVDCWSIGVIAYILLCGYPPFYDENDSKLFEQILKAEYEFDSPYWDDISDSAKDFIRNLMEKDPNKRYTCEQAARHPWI
Description: as §1

BMX = biological target: T12, BMX (Homo sapiens, UniProt P51813)
T12 construct: purchased in-house DSF panel (SGC Frankfurt)
T12 sequence (P51813 411-675): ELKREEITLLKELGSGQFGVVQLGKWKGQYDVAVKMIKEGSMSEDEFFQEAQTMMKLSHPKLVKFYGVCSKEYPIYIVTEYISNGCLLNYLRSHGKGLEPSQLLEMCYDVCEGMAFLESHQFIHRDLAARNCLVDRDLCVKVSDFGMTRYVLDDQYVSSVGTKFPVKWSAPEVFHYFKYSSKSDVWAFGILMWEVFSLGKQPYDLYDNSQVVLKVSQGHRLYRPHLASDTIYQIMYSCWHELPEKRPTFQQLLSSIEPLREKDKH
Description: as §1

CDKL1 = biological target: T13, CDKL1 (Homo sapiens, UniProt Q00532)
T13 construct: purchased in-house DSF panel (SGC Frankfurt)
T13 sequence (Q00532 1-303): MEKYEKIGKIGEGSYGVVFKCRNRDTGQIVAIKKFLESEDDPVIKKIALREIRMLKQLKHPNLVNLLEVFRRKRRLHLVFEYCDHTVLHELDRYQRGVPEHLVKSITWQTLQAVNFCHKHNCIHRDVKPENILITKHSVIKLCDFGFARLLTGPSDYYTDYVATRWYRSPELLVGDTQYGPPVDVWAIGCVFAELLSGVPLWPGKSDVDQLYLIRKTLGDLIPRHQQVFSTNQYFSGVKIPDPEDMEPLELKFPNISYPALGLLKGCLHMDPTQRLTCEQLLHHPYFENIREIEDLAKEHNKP
Description: as §1

GAK = biological target: T14, GAK (Homo sapiens, UniProt O14976)
T14 construct: purchased in-house DSF panel (SGC Frankfurt)
T14 sequence (O14976 14-351): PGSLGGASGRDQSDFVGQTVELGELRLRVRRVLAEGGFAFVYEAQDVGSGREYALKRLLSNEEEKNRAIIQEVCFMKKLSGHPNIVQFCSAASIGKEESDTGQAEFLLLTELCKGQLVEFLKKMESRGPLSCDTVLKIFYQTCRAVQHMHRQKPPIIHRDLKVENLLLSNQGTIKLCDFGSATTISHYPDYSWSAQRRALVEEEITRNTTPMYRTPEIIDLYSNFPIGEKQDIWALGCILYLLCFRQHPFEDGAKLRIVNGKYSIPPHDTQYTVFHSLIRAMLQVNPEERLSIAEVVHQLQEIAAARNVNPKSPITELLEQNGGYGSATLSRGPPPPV
Description: as §1

PDK4 = biological target: T15, PDK4 (Homo sapiens, UniProt Q16654)
T15 construct: purchased in-house DSF panel (SGC Frankfurt)
T15 sequence (Q16654 whole entry): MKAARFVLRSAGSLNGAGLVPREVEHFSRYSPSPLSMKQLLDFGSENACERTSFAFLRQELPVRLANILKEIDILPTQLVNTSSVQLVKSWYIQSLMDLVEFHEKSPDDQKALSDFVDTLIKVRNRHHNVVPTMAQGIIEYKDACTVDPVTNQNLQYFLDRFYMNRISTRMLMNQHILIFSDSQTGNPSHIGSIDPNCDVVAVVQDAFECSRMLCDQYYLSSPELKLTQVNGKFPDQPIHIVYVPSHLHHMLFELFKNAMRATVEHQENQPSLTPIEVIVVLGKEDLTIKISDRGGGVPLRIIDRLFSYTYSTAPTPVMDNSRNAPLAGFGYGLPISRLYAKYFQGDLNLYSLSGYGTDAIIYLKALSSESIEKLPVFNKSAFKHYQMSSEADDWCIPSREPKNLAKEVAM
Description: as §1

RIOK1 = biological target: T16, RIOK1 (Homo sapiens, UniProt Q9BRS2)
T16 construct: purchased in-house DSF panel (SGC Frankfurt)
T16 sequence (Q9BRS2 143-494): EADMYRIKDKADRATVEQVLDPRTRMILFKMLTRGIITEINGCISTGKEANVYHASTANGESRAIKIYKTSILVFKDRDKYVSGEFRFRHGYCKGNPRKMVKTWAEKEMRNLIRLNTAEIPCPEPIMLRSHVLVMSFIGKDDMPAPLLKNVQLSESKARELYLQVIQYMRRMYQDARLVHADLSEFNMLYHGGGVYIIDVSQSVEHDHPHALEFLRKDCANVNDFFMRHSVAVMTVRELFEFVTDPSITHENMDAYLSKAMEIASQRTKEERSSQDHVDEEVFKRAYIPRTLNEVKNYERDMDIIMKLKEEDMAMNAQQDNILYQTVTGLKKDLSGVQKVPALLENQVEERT
Description: as §1

Row | SMILES | ΔTm NEK1 (NEK1) | ΔTm CLK3 (CLK3) | ΔTm STK38L (STK38L) | ΔTm FES (FES) | ΔTm MAPK1 (MAPK1) | ΔTm PAK4 (PAK4) | ΔTm CASK (CASK) | ΔTm CAMK1G (CAMK1G) | ΔTm PHKG2 (PHKG2) | ΔTm FGFR1 (FGFR1) | ΔTm CAMK1D (CAMK1D) | ΔTm BMX (BMX) | ΔTm CDKL1 (CDKL1) | ΔTm GAK (GAK) | ΔTm PDK4 (PDK4) | ΔTm RIOK1 (RIOK1)
1 | CC(C)OC(=O)c1cc(Nc2ccnc(NCc3ccc(NC(=O)OC(C)(C)C)cc3)n2)n[nH]1 [42d, isopropyl 3-((2-((4-((tert-butoxycarbonyl)amino)benzyl)amino)pyrimidin-4-yl)amino)-1H-pyrazole-5-carboxylate] | 0.2 °C | -0.4 °C | 0.0 °C | 0.1 °C | -0.1 °C | -0.2 °C | 0.4 °C | -0.2 °C | -0.2 °C | 0.4 °C | -2.4 °C | -0.1 °C | 1.7 °C | -0.9 °C | – | –
2 | CC(C)(C)OC(=O)Nc1ccc(CNc2nccc(Nc3cc(C(=O)OC(C)(C)C)[nH]n3)n2)cc1 [43d, tert-butyl 3-((2-((4-((tert-butoxycarbonyl)amino)benzyl)amino)pyrimidin-4-yl)amino)-1H-pyrazole-5-carboxylate] | 0.1 °C | 0.0 °C | 0.0 °C | 1.1 °C | 0.0 °C | -0.9 °C | 0.4 °C | -0.7 °C | 0.5 °C | 0.6 °C | -2.9 °C | -0.4 °C | 2.1 °C | -4.1 °C | – | –
3 | COC(=O)c1cc(Nc2ccnc(NCCOCCNC(=O)OC(C)(C)C)n2)[nH]n1 [21d, methyl 5-((2-((2-(2-((tert-butoxycarbonyl)amino)ethoxy)ethyl)amino)pyrimidin-4-yl)amino)-1H-pyrazole-3-carboxylate] | 0.1 °C | 1.1 °C | 1.2 °C | 1.5 °C | 0.3 °C | 1.0 °C | 0.4 °C | 0.4 °C | 0.5 °C | 0.5 °C | 1.4 °C | 0.2 °C | 0.1 °C | 2.1 °C | 1.8 °C | 0.1 °C
4 | N#CCc1ccc(Nc2nccc(Nc3cc(C4CC4)[nH]n3)n2)cc1 [compound 1, reference compound] | 1.1 °C | 11.3 °C | 8.7 °C | 4.5 °C | 8.5 °C | 7.7 °C | 2.0 °C | 5.5 °C | 8.8 °C | 4.5 °C | 5.4 °C | 4.4 °C | 6.8 °C | 8.0 °C | 1.2 °C | 4.9 °C
5 | COC(=O)c1cc(Nc2ccnc(NCc3ccc(NC(=O)OC(C)(C)C)cc3)n2)[nH]n1 [21i, methyl 5-((2-((4-((tert-butoxycarbonyl)amino)benzyl)amino)pyrimidin-4-yl)amino)-1H-pyrazole-3-carboxylate] | 0.4 °C | 0.4 °C | 0.9 °C | 0.0 °C | 0.7 °C | 0.2 °C | 0.2 °C | 0.4 °C | -0.3 °C | 0.0 °C | -0.5 °C | -0.1 °C | 0.5 °C | 1.3 °C | 0.9 °C | 0.8 °C
